Active and inactive are the calls of the source. The rule behind the calls is not given here.
Columns and labels:
A-431 = test: Antiproliferative activity against human A431 cells after 72 hrs by MTT assay; type: functional, cell-based; conditions: A-431, 72 h
A549 [1] = test: Antiproliferative activity against human A549 cells after 72 hrs by MTT assay; type: functional, cell-based; conditions: A549, 72 h
[2] = target: Epidermal growth factor receptor (Homo sapiens, UniProt P00533); test: Inhibition of wild-type EGFR tyrosine kinase (unknown origin) assessed as ATP level by luminescence analysis
[3] = target: Epidermal growth factor receptor (Homo sapiens, UniProt P00533, L858R); test: Inhibition of EGFR tyrosine kinase L858R mutant (unknown origin) assessed as ATP level by luminescence analysis; type: protein assay
A549 [4] = test: Anticancer activity against human A549 cells xenografted in nude BALB/C mouse assessed as decrease in tumor volume at 50 mg/kg, po qd for 12 days; type: functional, organism-based
[5] = target: Vascular endothelial growth factor receptor 2 (Homo sapiens, UniProt P35968); test: Inhibition of VEGFR-2 (unknown origin) assessed as ATP level by luminescence analysis
Mus musculus = test: Toxicity in nude BALB/C mouse assessed as weight loss at 50 mg/kg, po qd for 12 days; type: organism-based; conditions: in vivo, 288 h

Chain of Vascular endothelial growth factor receptor 2 (P35968 whole entry): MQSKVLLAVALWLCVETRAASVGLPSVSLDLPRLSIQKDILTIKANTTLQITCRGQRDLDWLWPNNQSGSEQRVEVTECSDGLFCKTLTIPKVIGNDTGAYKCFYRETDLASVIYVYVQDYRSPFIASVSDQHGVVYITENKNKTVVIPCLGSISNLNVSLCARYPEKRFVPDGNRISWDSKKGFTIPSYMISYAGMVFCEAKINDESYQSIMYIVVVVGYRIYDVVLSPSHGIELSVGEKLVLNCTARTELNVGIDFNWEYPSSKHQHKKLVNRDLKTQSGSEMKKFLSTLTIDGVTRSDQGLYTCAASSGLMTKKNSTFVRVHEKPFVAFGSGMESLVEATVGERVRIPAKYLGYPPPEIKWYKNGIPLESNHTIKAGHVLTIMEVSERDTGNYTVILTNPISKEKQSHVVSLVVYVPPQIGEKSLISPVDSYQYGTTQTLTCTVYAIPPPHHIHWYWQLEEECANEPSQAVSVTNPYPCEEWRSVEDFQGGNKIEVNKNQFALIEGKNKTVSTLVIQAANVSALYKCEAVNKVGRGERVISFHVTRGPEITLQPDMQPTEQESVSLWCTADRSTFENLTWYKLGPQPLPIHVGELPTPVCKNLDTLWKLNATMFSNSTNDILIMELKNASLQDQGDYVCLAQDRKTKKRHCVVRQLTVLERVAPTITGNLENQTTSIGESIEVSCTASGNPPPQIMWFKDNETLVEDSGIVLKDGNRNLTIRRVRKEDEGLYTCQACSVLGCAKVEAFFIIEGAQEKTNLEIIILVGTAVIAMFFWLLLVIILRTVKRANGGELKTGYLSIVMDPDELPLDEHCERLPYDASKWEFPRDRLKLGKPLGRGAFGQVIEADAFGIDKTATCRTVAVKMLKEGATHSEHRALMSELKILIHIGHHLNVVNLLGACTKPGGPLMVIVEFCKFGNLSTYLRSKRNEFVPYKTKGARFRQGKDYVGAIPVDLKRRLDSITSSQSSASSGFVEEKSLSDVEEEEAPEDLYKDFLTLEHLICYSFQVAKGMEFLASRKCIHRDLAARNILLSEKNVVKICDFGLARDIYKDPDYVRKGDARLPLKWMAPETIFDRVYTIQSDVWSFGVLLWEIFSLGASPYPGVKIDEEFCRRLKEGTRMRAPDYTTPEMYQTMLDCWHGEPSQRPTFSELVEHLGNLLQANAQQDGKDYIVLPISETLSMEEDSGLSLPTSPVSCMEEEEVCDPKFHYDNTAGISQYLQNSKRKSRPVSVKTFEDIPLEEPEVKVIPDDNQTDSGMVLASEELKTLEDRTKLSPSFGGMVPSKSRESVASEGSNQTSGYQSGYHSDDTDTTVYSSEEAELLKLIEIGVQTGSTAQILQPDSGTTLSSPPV
Chain of Epidermal growth factor receptor (Homo sapiens, UniProt P00533, L858R) (P00533 25-1210 L858R limits assumed): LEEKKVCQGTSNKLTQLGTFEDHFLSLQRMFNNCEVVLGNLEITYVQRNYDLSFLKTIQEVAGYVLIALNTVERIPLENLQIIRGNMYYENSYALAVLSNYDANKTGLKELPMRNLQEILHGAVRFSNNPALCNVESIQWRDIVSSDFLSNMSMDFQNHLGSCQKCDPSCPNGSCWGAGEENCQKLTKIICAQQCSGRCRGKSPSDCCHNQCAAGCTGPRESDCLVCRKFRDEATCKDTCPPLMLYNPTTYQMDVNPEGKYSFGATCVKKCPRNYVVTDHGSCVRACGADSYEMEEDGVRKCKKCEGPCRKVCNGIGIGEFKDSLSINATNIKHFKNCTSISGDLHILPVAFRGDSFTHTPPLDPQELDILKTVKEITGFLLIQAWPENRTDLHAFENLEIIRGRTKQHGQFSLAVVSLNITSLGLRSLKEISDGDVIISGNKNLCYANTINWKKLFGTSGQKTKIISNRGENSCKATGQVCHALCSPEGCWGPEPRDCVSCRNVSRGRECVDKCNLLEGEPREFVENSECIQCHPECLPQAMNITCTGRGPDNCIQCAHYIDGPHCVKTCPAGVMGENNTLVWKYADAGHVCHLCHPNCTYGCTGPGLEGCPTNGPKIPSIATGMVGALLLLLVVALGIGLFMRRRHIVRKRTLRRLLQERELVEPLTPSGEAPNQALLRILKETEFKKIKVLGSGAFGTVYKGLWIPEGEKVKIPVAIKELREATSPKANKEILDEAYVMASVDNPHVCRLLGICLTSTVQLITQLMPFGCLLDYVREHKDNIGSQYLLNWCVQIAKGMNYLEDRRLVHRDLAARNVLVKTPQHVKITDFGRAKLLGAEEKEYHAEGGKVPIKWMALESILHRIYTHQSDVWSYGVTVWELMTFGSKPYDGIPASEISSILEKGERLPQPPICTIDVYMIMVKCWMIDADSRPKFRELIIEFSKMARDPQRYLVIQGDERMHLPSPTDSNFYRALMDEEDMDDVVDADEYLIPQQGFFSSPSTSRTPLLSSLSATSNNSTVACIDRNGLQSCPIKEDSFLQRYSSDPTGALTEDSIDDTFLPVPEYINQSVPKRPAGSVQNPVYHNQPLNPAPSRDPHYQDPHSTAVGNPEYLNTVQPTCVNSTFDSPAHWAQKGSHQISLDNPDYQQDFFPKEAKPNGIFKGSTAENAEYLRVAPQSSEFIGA
Chain of Epidermal growth factor receptor (Homo sapiens, UniProt P00533) (P00533 whole entry): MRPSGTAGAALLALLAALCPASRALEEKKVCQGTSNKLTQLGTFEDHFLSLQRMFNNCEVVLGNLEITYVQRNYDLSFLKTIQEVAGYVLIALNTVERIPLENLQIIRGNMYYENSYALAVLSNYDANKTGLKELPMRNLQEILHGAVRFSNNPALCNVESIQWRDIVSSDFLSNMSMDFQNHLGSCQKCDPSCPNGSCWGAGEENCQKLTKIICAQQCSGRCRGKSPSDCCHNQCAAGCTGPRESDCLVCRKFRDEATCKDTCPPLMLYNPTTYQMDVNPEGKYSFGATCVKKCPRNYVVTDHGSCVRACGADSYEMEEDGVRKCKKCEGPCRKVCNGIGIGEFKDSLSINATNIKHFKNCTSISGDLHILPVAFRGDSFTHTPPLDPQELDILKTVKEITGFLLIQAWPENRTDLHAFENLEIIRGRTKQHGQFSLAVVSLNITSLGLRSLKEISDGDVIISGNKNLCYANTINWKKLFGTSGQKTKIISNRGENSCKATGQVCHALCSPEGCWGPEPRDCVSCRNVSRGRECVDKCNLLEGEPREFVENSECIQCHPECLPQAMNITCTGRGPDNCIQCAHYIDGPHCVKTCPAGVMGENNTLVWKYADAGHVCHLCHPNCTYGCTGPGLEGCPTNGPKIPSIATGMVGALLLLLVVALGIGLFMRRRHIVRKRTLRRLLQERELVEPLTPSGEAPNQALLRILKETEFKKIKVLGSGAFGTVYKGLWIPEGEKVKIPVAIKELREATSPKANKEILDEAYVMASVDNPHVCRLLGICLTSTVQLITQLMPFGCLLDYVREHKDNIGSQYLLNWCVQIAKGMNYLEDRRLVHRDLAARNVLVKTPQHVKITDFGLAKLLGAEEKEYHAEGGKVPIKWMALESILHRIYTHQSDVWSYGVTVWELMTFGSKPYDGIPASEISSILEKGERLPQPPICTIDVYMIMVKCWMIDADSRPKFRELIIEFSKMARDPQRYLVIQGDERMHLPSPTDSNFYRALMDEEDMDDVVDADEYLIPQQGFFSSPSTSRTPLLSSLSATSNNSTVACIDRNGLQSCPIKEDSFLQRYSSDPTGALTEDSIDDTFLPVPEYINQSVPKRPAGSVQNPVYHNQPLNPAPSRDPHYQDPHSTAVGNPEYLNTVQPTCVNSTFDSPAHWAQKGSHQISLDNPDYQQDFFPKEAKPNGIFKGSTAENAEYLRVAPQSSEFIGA

| Structure (SMILES) | IC50 (A-431) | IC50 (A549 [1]) | further results |
| --- | --- | --- | --- |
| CN1CCN(C(=O)c2ccc(NC(=O)Nc3ccc4ncnc(Nc5ccc(OCc6cccc(F)c6)c(Cl)c5)c4c3)cc2)CC1 | > 10 µM | 7.39 µM |  |
| CN1CCN(CCNC(=O)Nc2ccc3ncnc(Nc4cccc(C(F)(F)F)c4)c3c2)CC1 | > 10 µM | > 10 µM |  |
| O=C(Nc1ccc(CN2CCCCC2)cc1)Nc1ccc2ncnc(Nc3cccc(C(F)(F)F)c3)c2c1 | 1.55 µM | 1.05 µM | IC50 [2]: 0.005 µM; IC50 [3]: 0.0105 µM |
| COc1ccc(Nc2ncnc3ccc(NC(=O)Nc4ccc(CN5CCN(C)CC5)cc4)cc23)cc1Cl | 2.01 µM | 3.57 µM |  |
| COc1ccc(NC(=O)Nc2ccc3ncnc(Nc4cccc(C(F)(F)F)c4)c3c2)cc1 | 4.95 µM | 9.47 µM |  |
| CN1CCN(Cc2ccc(NC(=O)Nc3ccc4ncnc(Nc5cccc(C(F)(F)F)c5)c4c3)cc2)CC1 | 2.41 µM | 1.65 µM |  |
| C[C@@H](Nc1ncnc2ccc(NC(=O)NCCN3CCN(C)CC3)cc12)c1ccccc1 | > 10 µM | > 10 µM |  |
| CN1CCN(Cc2ccc(NC(=O)Nc3ccc4ncnc(Nc5ccc(F)c(F)c5)c4c3)cc2)CC1 | > 10 µM | > 10 µM |  |
| CN1CCN(Cc2ccc(NC(=O)Nc3ccc4ncnc(Nc5cccc(C(=O)N6CCCC6)c5)c4c3)cc2)CC1 | > 10 µM | > 10 µM |  |
| O=C(Nc1ccc(CN2CCOCC2)cc1)Nc1ccc2ncnc(Nc3cccc(C(F)(F)F)c3)c2c1 | 8.49 µM | 4.03 µM |  |
| O=C(Nc1ccccc1)Nc1ccc2ncnc(Nc3cccc(C(F)(F)F)c3)c2c1 | > 10 µM | > 10 µM |  |
| CN1CCN(c2ccc(NC(=O)Nc3ccc4ncnc(Nc5cccc(C(F)(F)F)c5)c4c3)cc2)CC1 | 2.2 µM | 2.76 µM |  |
| COC(=O)c1cccc(Nc2ncnc3ccc(NC(=O)Nc4ccc(CN5CCN(C)CC5)cc4)cc23)c1 | 5.63 µM | > 10 µM |  |
| CN(C)Cc1ccc(NC(=O)Nc2ccc3ncnc(Nc4cccc(C(F)(F)F)c4)c3c2)cc1 | 1.03 µM | 1.12 µM |  |
| C#Cc1cccc(Nc2ncnc3ccc(NC(=O)Nc4ccc(CN5CCN(C)CC5)cc4)cc23)c1 | 2.81 µM | 5.17 µM |  |
| CCN(CC)c1ccc(NC(=O)Nc2ccc3ncnc(Nc4cccc(C(F)(F)F)c4)c3c2)cc1 | 6.46 µM | 3.52 µM |  |

| Structure (SMILES) | IC50 (A-431) | IC50 (A549 [1]) | further results |
| --- | --- | --- | --- |
| O=C(Nc1ccc(CN2CCCC2)cc1)Nc1ccc2ncnc(Nc3cccc(C(F)(F)F)c3)c2c1 | 1.36 µM | 0.83 µM | IC50 [2]: 0.0041 µM; Activity (A549 [4]): Active; IC50 [3]: 0.0115 µM; IC50 [5]: 0.565 µM; Activity (Mus musculus): Non-toxic |
| CN1CCN(C(=O)c2ccc(NC(=O)Nc3ccc4ncnc(Nc5cccc(C(F)(F)F)c5)c4c3)cc2)CC1 | > 10 µM | 8.31 µM |  |
| Cc1ccc(NC(=O)Nc2ccc3ncnc(Nc4cccc(C(F)(F)F)c4)c3c2)cc1 | > 10 µM | 4.14 µM |  |
| CCN(CC)Cc1ccc(NC(=O)Nc2ccc3ncnc(Nc4cccc(C(F)(F)F)c4)c3c2)cc1 | 3.98 µM | 2.07 µM |  |
| O=C(Nc1cccc(CN2CCCC2)c1)Nc1ccc2ncnc(Nc3cccc(C(F)(F)F)c3)c2c1 | 1.23 µM | 0.86 µM |  |
| CN1CCN(Cc2ccc(NC(=O)Nc3ccc4ncnc(Nc5ccc(F)c(Cl)c5)c4c3)cc2)CC1 | 4 µM | 3.48 µM |  |
| CN1CCN(Cc2ccc(NC(=O)Nc3ccc4ncnc(Nc5ccc(OCc6cccc(F)c6)c(Cl)c5)c4c3)cc2)CC1 | 0.64 µM | 0.9 µM | IC50 [5]: > 1 µM |
| C[C@@H](Nc1ncnc2ccc(NC(=O)Nc3ccc(CN4CCN(C)CC4)cc3)cc12)c1ccccc1 | > 10 µM | > 10 µM |  |
| CN1CCN(C(=O)c2ccc(NC(=O)Nc3ccc4ncnc(Nc5ccc(F)c(Cl)c5)c4c3)cc2)CC1 | > 10 µM | > 10 µM |  |
| O=C(Nc1ccc(C(=O)N2CCOCC2)cc1)Nc1ccc2ncnc(Nc3ccc(F)c(Cl)c3)c2c1 | > 10 µM | > 10 µM |  |
| COc1cc2ncnc(Nc3ccc(F)c(Cl)c3)c2cc1OCCCN1CCOCC1 [GEFITINIB] |  |  | Activity (A549 [4]): Active; Activity (Mus musculus): Non-toxic |
| O=C(Nc1cccc(CN2CCCCC2)c1)Nc1ccc2ncnc(Nc3cccc(C(F)(F)F)c3)c2c1 | 1.33 µM | 1.06 µM |  |
| C#Cc1cccc(Nc2ncnc3ccc(NC(=O)Nc4ccc(C(=O)N5CCN(C)CC5)cc4)cc23)c1 | > 10 µM | > 10 µM |  |
| C#Cc1cccc(Nc2ncnc3ccc(NC(=O)Nc4ccc(CN(CC)CC)cc4)cc23)c1 | 1.24 µM | 2.25 µM |  |
| C#Cc1cccc(Nc2ncnc3ccc(NC(=O)Nc4ccc(CN5CCOCC5)cc4)cc23)c1 | > 10 µM | > 10 µM |  |

Reference: ChEMBL document CHEMBL3739356, “Combination of 4-anilinoquinazoline, arylurea and tertiary amine moiety to discover novel anticancer agents” (Bioorg Med Chem, 2016)
